# According to patent US20040077080A1, “Compositions and methods for induction of proteins involved in xenobiotic metabolism” (priority 2000, published 2004):
# “Also recorded” adds a separate entry of the source.
# B1: CYP2C19 F4 fragment (dsDNA)
# DNA 1: AACCAAACTCTTCTGACCCCCAATCT
# DNA 2: AGATTGGGGGTCAGAAGAGTTTGGTT
# Legend:
# [1] = tested on: T1, CAR (hCAR) (Homo sapiens), Q14994-2; test: cell_activity; settings: Caco-2 luciferase, fold above no receptor
# T1 sequence: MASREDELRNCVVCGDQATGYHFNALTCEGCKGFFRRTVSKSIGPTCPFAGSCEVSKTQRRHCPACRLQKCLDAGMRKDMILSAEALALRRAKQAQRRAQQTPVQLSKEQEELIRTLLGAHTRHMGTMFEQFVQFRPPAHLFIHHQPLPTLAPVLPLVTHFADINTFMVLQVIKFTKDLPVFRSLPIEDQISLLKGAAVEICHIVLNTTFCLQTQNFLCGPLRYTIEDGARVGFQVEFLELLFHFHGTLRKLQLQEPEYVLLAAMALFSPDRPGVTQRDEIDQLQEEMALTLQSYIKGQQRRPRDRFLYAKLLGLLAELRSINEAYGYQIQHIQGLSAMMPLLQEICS
# [2] = tested on: AhR (dioxin response elements); test: DRE12-6 luciferase assay (HepG2 with dioxin response elements); settings: DRE12-6 cells, 28 hours
# Protocol: (§6) FIG. 25A: DRE12-6 cells were treated for 28 hours with the indicated concentrations of phytochemicals. FIG. 25B: DRE12-6 cells were treated with the indicated chemicals for 3 hours prior to co-treatment with 2,3,7,8-tetrachlorodibenzo-p-dioxin (TCDD) for 28 hours.
# (§7) Chemical treatment was followed by cell lysis and luciferase measurement.
# (§8) FIG. 26A: DRE12-6 cells were inoculated into a 96-well plate (2×10^4 cells per well) a day prior to treatment and treated for 28 hours with the indicated concentrations of the environmental contaminants (PAHs, PAH derivatives, PCBs, or pesticide derivatives). FIG. 26B: DRE12-6 cells were treated with the indicated chemicals for 3 hours prior to co-treatment with 2,3,7,8-tetrachlorodibenzo-p-dioxin (TCDD) for 28 hours.
# (§9) The luciferase-SV40 promoter vector, with the three copies of the dioxin response elements, was transfected into HepG2 cells, which were put under neomycin selection to yield the stable cell line DRE12-6, for detection of AhR-dependent transactivation.
# (§10) Luciferase assay: Luciferase assays using the LucLite system (Packard Instrument Co., Meriden, Conn.) were performed according to the manufacturer's instructions. Results were expressed as relative light units or fold induction, relative to DMSO-treated control cells. The data represent the mean±standard deviation of experiments performed in duplicate.
# CYP1A1 mRNA [3] = test: Northern blot of CYP1A1 mRNA in primary cultures of human hepatocytes (Example II); settings: primary human hepatocytes
# Protocol: Six well plates containing human hepatocytes were obtained from the Liver Tissue Procurement and Distribution System (LTPADS, University of Minnesota, Minneapolis, Minn.). […] All inducers were dissolved in DMSO and added to media at a 0.1% final concentration of this reagent. After treatment, media was removed and cells harvested for RNA isolation.
# (§1) Total RNA from hepatocytes or HepG2 cells was isolated using Trizol™ reagent (Gibco BRL Products, Gaithersburg, Md.) and quantified by measuring absorbance at 260 nm; purity was assessed by determining the 260/280 nm ratio. […] A cDNA probe for human 18S RNA probe (Ambion, Austin Tex.) was used to normalize the amount of RNA loaded in each lane. […] Autoradiographs of Northern blots were quantified by densitometry using a Model GS-670 Imaging Densitometer equipped with Molecular Analysis/Mac version 1.1.1. Image Analysis software (BioRad laboratories, Hercules, Calif.) or by scaning autoradiograms with a ScanMaker II (Microtek) and digitized with Un-Scan-It software (Silk Scientific, Orem Utah). Exposure times used were in the linear range of the film, Kodak XAR-5.
# CYP3A4 enhancer (PXRE) = test: Luciferase reporter assay, HepG2 cells stably transformed with CYP3A4 enhancer (colony 13); settings: 72 hours, omeprazole 100, clotrimazole 10, RU486 10, PCN 50, TCDD 1 micromolar
# From the text: (§11) HepG2 cells were harvested at approximately 50% confluency and seeded in six well dishes at 5×10^5 cells per well in DMEM containing 10% fetal bovine serum (FBS). […] The control cells were those that received plasmid DNA containing pGL3 promoter and pIRES(neo) or pGL3promoter and hPXR in pIRES(neo). After sixteen hours of exposure to the precipitated DNA, the culture medium was removed, cells washed twice with DMEM, and fresh media containing 10% FBS added. After an additional twenty four hours, media was replaced with that containing 400 micrograms per milliliter of G418. Media was changed every two days for three weeks until small colonies were visible. Single colonies were selected and transferred to twenty four well Costar plates (VWR, Westchester, Pa.). Each of the twenty four wells contained the same media and cells were grown to confluency with media changes every three days. Confluent wells were trypsinized and cells transferred into six well plates and upon reaching confluency therein, cells were further transferred to T75 flasks.
# (§12) Luciferase assays were performed as specified by the manufacture (LucLite system, Packard Instrument, Meriden, Conn.). Activity was determined using the Packard LumniCount luminometer and results expressed as relative light units or fold increase above control (DMSO treated cells).
# (§13) Cells were seeded in T75 flasks and grown to confluency. […]
# CYP1A1 mRNA [4] = test: Northern blot of CYP1A1 mRNA in HepG2 cells; settings: HepG2 cells; mean of two determinations
# Protocol: HepG2 cells were obtained from American Type Culture Collection (ATCC). Cells were grown in DMEM (Gibco/BRL). Twenty-four hours after cells were plated and grown to confluency, they were treated with one of the bioflavonoids, TCDD, or beta-naphthoflavone (Sigma). All inducers were dissolved in DMSO and this solvent was added to control cells at 0.1%.
# as §1
# hPXR / CYP3A4 enhancer = settings: colony 1F; 72 hours; omeprazole 100 micromolar, PCN 50 micromolar, TCDD 1 micromolar
# From the text: as §11, §12, §13
# [5] = tested on: human CYP1A1 promoter (Ah receptor); test: 101L cell luciferase assay (HepG2 with human CYP1A1 promoter-luciferase), 96-well; settings: 101L cells; for fold increase in luciferase activity, dose response of known CYP1A1 inducers: benzanthracene and omeprazole maximum at 100 micromolar, TCDD at 2 nanomolar
# Protocol: Cells were initially seeded in flasks containing media without G418. After an overnight incubation the cultures were changed into media containing G418 for antibiotic selection. After three to five days, cells were removed from flasks by trypsinization and replated on either a twenty-four-well plate at a density of 3.5×10^5 cells per well, or a ninety-six-well plate at a density of 7.5×10^4 cells per well, in DMEM media that was replaced with that containing 0.1% FBS and without G418 or indicator (phenol red). The next day, media containing 0.1% FBS and G418 was added to the cultures. […] For the antagonist experiments, cells were co-treated with a flavonoid and two nanomolar TCDD. All inducers were dissolved in DMSO and this reagent was added to control cells at 0.1%. The cells were treated with varous doses and times (six to eighteen hours). After treatment, the media containing the compound was removed by aspiration and replaced with one-hundred microliters per well of DMEM for direct analysis of luciferase activity. Experiments were performed on 101L cells from frozen stocks on the initial derivation and the passage number was limited to thirty.
# Luciferase assays were performed as specified by the manufacturer (LucLite system, Packard Instrument, Meriden, Conn.). Activity was determined using a Packard LumiCount luminometer and results expressed as relative light units or fold increase above control (DMSO treated cells.
# CYP1A1 mRNA [6] = test: Northern blot of CYP1A1 in primary human hepatocytes (Example V); settings: primary hepatocytes, 24 hours; TCDD 10 nanomoles per liter, 3-MC 0.5 nanomoles per liter, omeprazole 100, chrysin 25, curcumin 50, resveratrol 25, DMBA 20, 2-AAF 100 micromoles per liter
# From the text: The isolated RNA was subjected to Northern blot analysis.
# CYP2C19 (hCAR) = test: CYP2C19 induction in HepG2 cell lines stably transfected with hCAR
# CYP3A4 mRNA [7] = settings: human, hepatocytes
# Protocol: FIG. 28B: Human primary hepatocytes were exposed for 48 hours to commercial health supplements including grapeseed, garlic, kava-kava, and ginseng.
# Total RNA was prepared from the treated cells, subjected to electrophoresis on a 1% formaldehyde gel, and transferred onto a nylon membrane.
# CYP3A4 mRNA [8] = settings: human, hepatocytes; remark: listed apart in the source
# Protocol: FIG. 13 depicts the effect of various CYP3A4 inducers on CYP3A4 expression in human hepatocytes. […] Total RNA (ten micrograms) was subjected to northern blot analysis and developed with a specific cDNA probe to CYP3A4 as described in the Examples.
# Human hepatocytes were treated with various CYP3A4 inducers for forty eight hours, harvested, and RNA and cell homogenates isolated.
# CYP3A4 mRNA (PXR) = test: Northern blot of CYP3A4 in stable cells overexpressing PXR (Hepg-PXR); settings: stable cells that overexpress PXR
# Protocol: FIG. 29 depicts CYP3A4 gene regulation in response to PXR ligands by the stably transfected cell line Hepg-PXR (HepG2 cells overexpressing PXR). Total RNA was prepared from Hepg-PXR cells chemically treated as indicated. The RNA blot was hybridized with ^32P-labeled cDNA for CYP3A4 (upper panel).
# Northern blot analysis. Total RNA from primary human hepatocytes and from a PXR stable cell line was isolated using Trizol reagent (Invitrogen, Carlsbad, Calif.) and quantified by spectrophotometric analysis at 260 nanometers. […] The blot was subsequently washed and re-hybridized to an 18S rRNA probe to verify that equal amounts of total RNA had been applied to each lane.
# [9] = tested on: PXR / mdr1(dr4) response element; test: Caco-PXR/Pgp-Luc stable cell luciferase assay
# Protocol: (§2) FIG. 35 depicts dose-response behavior to various PXR activators in stable cell lines overexpressing PXR and harboring DR4 response element. FIG. 35A: Results are shown for the stable cell line Hep-PXR/PgpLuc. FIG. 35B: Results are shown for the stable cell line Caco-PXR/PgpLuc.
# (§3) Cells were exposed to the test compounds for 48 hours at the concentrations indicated.
# (§4) Establishment of stable transformants containing both PXR and reporter plasmid and development of high throughput bioassay for PXR-dependent transactivation: The stable transformants Hep-PXR/mdr1(dr4)-Luc and Caco-PXR/mdr1(dr4)-Luc cell lines were generated from the parental cell lines HepG-PXR and Caco-PXR, respectively, according to the following procedure. The parental cell lines HepG-PXR and Caco-PXR, which overexpress PXR, were stably transfected with the luciferase reporter plasmid mdr1(dr4)-Luc. The transfected cells were cultured in DMEM (HepG-PXR cells) or in IMEM (Caco-PXR cells), both media supplemented with 10% fetal bovine serum and neomycin (700 micrograms per milliliter).
# (§5) For the induction assay, stable transformants were seeded in 96-wells plates at a density of 1×10^4 cells per well and allowed to recover overnight. Plates were treated with test compounds at varying concentrations, using 3 replicates per dose. After 48 hours of exposure to the test compound, cells were washed with phosphate buffered saline, lysis buffer was applied to the wells, and luciferase substrate added. Following 10 minutes for light adaptation, luminescence was monitored according to the manufacturer's instructions (Packard kit, Biomed).
# [10] = tested on: PXR / mdr1(dr4) response element; test: Hep-PXR/Pgp-Luc stable cell luciferase assay
# Protocol: as §2, §3
# FIG. 36 depicts the effect of environmental and botanical chemicals on luciferase activity in the stable cell line Hep-PXR/PgpLuc. Cells were inoculated into 96-well plates at a density of 2×10^4 cells per well. After overnight recovery, cells were treated with the test compounds at the concentrations indicated for 48 hours.
# as §4, §5
# [11] = tested on: AhR (dioxin response elements); test: in vitro; settings: human, fold induction of luciferase activity above DMSO, DRE12-6 cells, 28 hours; TCDD 10 nanomoles per liter, omeprazole 25, 2-AAF 100, DMBA 20 micromoles per liter
# Protocol: as §6, §7, §8, §9, §10
# [12] = tested on: PXR / CYP3A4 response elements; test: DPX2 (Hepg-hPXR/3A4-Luc) luciferase assay; settings: DPX2 cells, kava-kava 100 micrograms per milliliter, chrysin 25 micromoles per liter
# Protocol: Compounds tested included known PXR ligands and conventional drugs (FIG. 30A), environmental contaminants (FIG. 30B), and herbal supplements (FIG. 30C). DPX2 cells were cultured with DMEM supplemented with 10% fetal bovine serum and neomycin. Cells were inoculated into 96-well plate at a density of 1×10^4 cells per well the day before treatment.
# 2. […] In addition, a distal enhancer module, XREM, was amplified by PCR using the sense primer
# The resulting amplified XREM fragment was ligated upstream of PXRE containing a 3A4 promoter, into a luciferase vector.
# A neomycin resistance gene was generated by PCR amplification using the pcDNA3.1 plasmid (Invitrogen, Carlsbad, Calif.), which encodes a neomycin resistant gene, as a DNA template. The sense primer had the sequence […] Amplification was followed by SalI digestion of the PCR product, and the resulting fragment ligated to the SalI-digested PGL3-promoter plasmid, which contains luciferase as a reporter gene. […] The CYP3A4 cell line DPX2 (Hepg-hPXR/3A4-Luc) was established by double transfection with the PXR expression plasmid and the luciferase plasmid containing CYP3A4 PXR response element under selection with both neomycin and hygromycin.
# [13] = target: CAR/RXR heterodimer (hCAR/hRXRa) (Homo sapiens, UniProt Q14994-2;P19793 Q14994-2:1-348,P19793:1-462); test: EMSA; settings: tags: TNT coupled transcription/translation (Promega); label: 32P
# [14] = TCDD 10 nanomoles per liter, omeprazole 25, 2-AAF 100, DMBA 20 micromoles per liter
# CAR/RXR heterodimer (hCAR/hRXRa), sequence (P19793 whole entry, one chain of several): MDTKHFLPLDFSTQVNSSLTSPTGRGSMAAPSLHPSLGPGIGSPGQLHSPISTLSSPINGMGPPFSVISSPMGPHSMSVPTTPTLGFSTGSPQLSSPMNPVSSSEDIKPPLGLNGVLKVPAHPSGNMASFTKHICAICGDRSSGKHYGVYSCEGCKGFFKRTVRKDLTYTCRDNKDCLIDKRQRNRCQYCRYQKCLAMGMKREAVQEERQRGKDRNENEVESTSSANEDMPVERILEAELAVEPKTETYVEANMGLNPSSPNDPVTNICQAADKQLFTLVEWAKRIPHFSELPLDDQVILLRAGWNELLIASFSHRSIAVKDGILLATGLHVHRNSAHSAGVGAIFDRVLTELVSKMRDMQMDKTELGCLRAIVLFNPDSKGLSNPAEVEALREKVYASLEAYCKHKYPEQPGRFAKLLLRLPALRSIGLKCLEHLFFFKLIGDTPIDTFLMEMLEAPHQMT
molecule,measurement,setting,value
CYP2B6 PBREM reporter,activity,[1],6.16 fold
Clc1cc2c(cc1Cl)Oc1cc(Cl)c(Cl)cc1O2 [TCDD],AhR-mediated luciferase induction (in words),[2],dose-dependent increase
same,fold induction of luciferase activity above DMSO,[2]; [14],12.99±0.64 fold
same,fold induction at 28 h,"[2]; human, fold induction of luciferase activity above DMSO, TCDD 10 nanomoles per liter, omeprazole 25, 2-AAF 100, DMBA 20 micromoles per liter",20
same,"CYP1A1 mRNA level Subject A (%), normalized to TCDD induction",CYP1A1 mRNA [3]; 24 hours,100%
same,"CYP1A1 mRNA level Subject B (%), normalized to TCDD induction",CYP1A1 mRNA [3]; 24 hours,100%
same,"CYP1A1 mRNA level Subject D (%), normalized to TCDD induction",CYP1A1 mRNA [3]; 24 hours,100%
same,"fold increase in luciferase activity above DMSO, single concentrations (FIG. 15)",CYP3A4 enhancer (PXRE),less than one
same,"HepG2 CYP1A1 mRNA (%), normalized to TCDD induction",CYP1A1 mRNA [4],100%
same,"fold increase in luciferase activity above DMSO, single concentrations (FIG. 14)",hPXR / CYP3A4 enhancer,less than two
same,"fold increase in luciferase activity, dose response of known CYP1A1 inducers",[5],twelve to thirty-five; also recorded: twenty-two
same,CYP1A1 induction by Northern blot (in words),CYP1A1 mRNA [6],maximum induction
"Clc1ccc(-c2nc3sccn3c2C=NOCc2ccc(Cl)c(Cl)c2)cc1 [CITCO, 6-(4-chlorophenyl)imidazo[2,1-b][1,3]thiazole-5-carbaldehyde-O-(3,4-dichlorbenzyl)oxime]",induction of HepG2 CYP2C19 (in words),CYP2C19 (hCAR),induce HepG2 CYP2C19
CCC1(c2ccccc2)C(=O)NC(=O)NC1=O [phenobarbital],induction of HepG2 CYP2C19 (in words),CYP2C19 (hCAR),induce HepG2 CYP2C19
same,CYP3A4 mRNA by Northern blot (in words),CYP3A4 mRNA [7],increased CYP3A4 gene expression
same,fold increase in CYP3A4 mRNA,CYP3A4 mRNA [8],3.8 fold
CC[C@H](C)C(=O)O[C@H]1CCC=C2C=C[C@H](C)[C@H](CC[C@@H]3C[C@@H](O)CC(=O)O3)[C@H]21 [mevastatin],CYP3A4 induction by Northern blot (in words),CYP3A4 mRNA (PXR),efficiently activated
same,dose dependence of luciferase induction (in words),[9],dose-dependent luciferase induction
same,strength of luciferase induction (in words),[9],strongly induce
same,dose dependence of luciferase induction (in words),[10],dose-dependent luciferase induction
c1ccc2cc3c(ccc4ccccc43)cc2c1 [benzanthracene],"CYP1A1 mRNA level Subject A (%), normalized to TCDD induction",CYP1A1 mRNA [3]; 24 hours,50%
same,"CYP1A1 mRNA level Subject B (%), normalized to TCDD induction",CYP1A1 mRNA [3]; 24 hours,50%
same,"CYP1A1 mRNA level Subject C (%), normalized to benzanthracene induction","CYP1A1 mRNA [3]; Subject C, 24 hours",100%
same,"CYP1A1 mRNA level Subject D (%), normalized to TCDD induction",CYP1A1 mRNA [3]; 24 hours,52%
same,"CYP1A1 mRNA, % of that observed with TCDD, all subjects",CYP1A1 mRNA [3]; 100 micromolar benzanthracene,50%
same,fold induction,[11],28.7 ± 1.65
same,maximum CYP1A1 mediated luciferase activity,"[5]; 96-well plate format, 50 micromolar benzanthracene",33 fold
same,"fold increase in luciferase activity, dose response of known CYP1A1 inducers",[5],twelve to thirty-five
"CC(=O)Nc1ccc2c(c1)Cc1ccccc1-2 [2-AAF, 2-acetylaminofluorene]",fold induction of luciferase activity above DMSO,[2]; [14],10.21±0.36 fold
same,fold induction of luciferase activity above DMSO,"[2]; TCDD 10 nanomoles per liter, omeprazole 25, 2-AAF 100, DMBA 20 micromoles per liter, listed as 2-acetylaminofluorene",4.8 fold
same,fold induction of luciferase activity above DMSO,[12]; 48 hours,24.7 fold
same,fold induction at 48 h,"[12]; human, fold induction of luciferase activity above DMSO",24.8
same,strength of luciferase induction (in words),"[10]; Hep-PXR/PgpLuc cells, 48 hours, omeprazole 100 micromoles per liter versus rifampicin 10 micromoles per liter",strongly induced
same,CYP1A1 induction by Northern blot (in words),CYP1A1 mRNA [6],increased CYP1A1 expression slightly
B1,binding result,[13],binds
